From US7595320B2, “Hydrazinocarbonyl-thieno[2,3-C]pyrazoles, process for preparing them, compositions containing them and use thereof” (Aventis Pharma S.A., priority 2005, dated 2009)
Structures can show the parent of a compound that is named as a salt.

Assays:
Format in all cases: biochemical
Aurora2 = target: T1, Aurora2 (Homo sapiens, UniProt O14965); test: Aurora2 enzymatic test, NuMA phosphorylation with [33P]ATP, Flashplate; conditions: whole recombinant protein, 1 μM ATP
T1 construct: Aurora2: whole recombinant protein comprising an N-terminal histidine tail; His tag (N); made in house; host or cells: E. coli
T1 sequence (O14965 1-403): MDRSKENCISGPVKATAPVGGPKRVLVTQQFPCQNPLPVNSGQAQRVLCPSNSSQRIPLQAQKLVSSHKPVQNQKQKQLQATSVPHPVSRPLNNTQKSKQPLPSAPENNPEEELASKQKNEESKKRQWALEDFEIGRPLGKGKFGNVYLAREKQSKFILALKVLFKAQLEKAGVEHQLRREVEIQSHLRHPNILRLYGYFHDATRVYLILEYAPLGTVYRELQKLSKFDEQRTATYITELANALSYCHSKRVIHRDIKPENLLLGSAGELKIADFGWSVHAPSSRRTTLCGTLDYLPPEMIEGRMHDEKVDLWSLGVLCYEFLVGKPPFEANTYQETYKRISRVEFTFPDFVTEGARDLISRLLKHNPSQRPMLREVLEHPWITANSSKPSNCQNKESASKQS
Method: (§1) The inhibitory effect of compounds with respect to the kinases Aurora1 and Aurora2 is determined by means of an enzymatic test using radioactivity detection.
(§2) The kinase activity of Aurora1 and Aurora2 is evaluated via the phosphorylation of the substrate Numa-histidine in the presence of radiolabelled ATP ([^33P]ATP) using 96-well Flashplate plates in which the nickel chelate is bound to the surface of the microplate. The amount of ^33P phosphate incorporated into the NuMA substrate is proportional to the activity of the enzyme Aurora1 or Aurora2.
Aurora2: whole recombinant protein comprising an N-terminal histidine tail, was expressed in E. coli and purified to more than 82%.
(§3) NuMA (nuclear protein that combines with the mitotic apparatus): 424-amino acid fragment, expressed in E. coli, the N-terminal end of which has been labeled with histidine, and used as substrate for the two Aurora enzymes.
(§4) The microplates used are 96-well Flash-Plate plates, nickel chelate (Perkin-Elmer, model SMP107).
(§5) The products to be evaluated are incubated in a reaction volume of 100 μL per well, in the presence of 10 nM of Aurora1 or Aurora2, 500 nM of NuMA substrate in a buffer composed of 50 mM Tris/HCl (pH 7.5), 50 mM NaCl, 5 mM MgCl2 (Aurora-B) or 10 mM MgCl2 (Aurora-A) and 1 mM DTT, at 37° C.
(§6) 80 μL of enzyme/substrate incubation buffer are distributed in each well, followed by 10 μL of product to be evaluated, at variable concentrations. The reaction is initiated by adding 1 μM final of ATP containing 0.2 μCi of [^33P]ATP (10 μL). After incubating for 30 minutes, the reaction is quenched by simple removal of the reaction buffer and each well is washed twice with 300 μl of Tris/HCl buffer. The radioactivity is then measured in each well using a Packard, Top-Count model scintillation machine.
(§7) The control enzymatic activity of Aurora is expressed by the number of counts per minute obtained over 30 minutes after subtracting the background noise (reaction mixture containing no enzyme). The evaluation of the various test products is expressed as a percentage of inhibition of the Aurora activity relative to the control.

Tie2 = target: T2, Tie2 (Homo sapiens, UniProt Q02763); test: Tie2 kinase test, phosphorylation of PLC with GST-Tie2; conditions: GST-Tie2 intracellular domain 776-1124
T2 construct: amino acids of the intracellular domain 776-1124; made in house; host or cells: baculovirus expression (pFastBacGT vector)
T2 sequence (Q02763 776-1124): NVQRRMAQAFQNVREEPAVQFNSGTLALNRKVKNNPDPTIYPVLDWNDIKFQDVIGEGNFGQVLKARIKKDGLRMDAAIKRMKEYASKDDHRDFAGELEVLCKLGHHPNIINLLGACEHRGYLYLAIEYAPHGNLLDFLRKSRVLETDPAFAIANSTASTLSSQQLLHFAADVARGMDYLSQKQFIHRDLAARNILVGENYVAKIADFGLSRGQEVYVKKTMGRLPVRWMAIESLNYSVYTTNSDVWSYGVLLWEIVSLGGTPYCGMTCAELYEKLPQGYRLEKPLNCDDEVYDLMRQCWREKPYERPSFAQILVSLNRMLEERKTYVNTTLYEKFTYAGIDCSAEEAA
Method: The coding sequence of human Tie2 corresponding to the amino acids of the intracellular domain 776-1124 was generated by PCR using the cDNA isolated from a human placenta as a model. This sequence was introduced into a pFastBacGT baculovirus expression vector in the form of a GST fusion protein.
The inhibitory effect of the molecules is determined in a test of phosphorylation of PLC with Tie2 in the presence of GST-Tie2 purified to about 80% homogeneity. The substrate is composed of the SH2-SH3 fragments of PLC expressed in the form of a GST fusion protein.
The kinase activity of Tie2 is measured in a MOPS 20 mM pH 7.2 buffer, containing 10 mM MgCl2, 10 mM MnCl2, 1 mM DTT, 10 mM of glycerophosphate. In a 96-well FlashPlate plate maintained on ice, a reaction mixture is deposited, composed of 70 μL of kinase buffer containing 100 ng of enzyme GST-Tie2 per well. Next, 10 μL of the test molecule diluted in DMSO to a maximum concentration of 10% are added. For a given concentration, each measurement is performed four times. The reaction is initiated by adding 20 μL of solution containing 2 μg of GST-PLC, 2 μm of cold ATP and 1 μCi of ^33P[ATP]. After incubation for one hour at 37° C., the reaction is stopped by adding 1 volume (100 μl) of 200 mM EDTA. After removal of the incubation buffer, the wells are washed three times with 300 μL of PBS. The radioactivity is measured on a MicroBeta1450 Wallac.
The inhibition of the Tie2 activity is calculated and expressed as a percentage of inhibition relative to the control activity determined in the absence of compound.

Aurora1 = target: T3, Aurora1 (Homo sapiens, UniProt Q96GD4); test: Aurora1 enzymatic test, NuMA phosphorylation with [33P]ATP, Flashplate; conditions: Aurora-B/INCENP-C3 recombinant complex, 1 μM ATP
T3 construct: His tag (N); made in house
T3 sequence (Q96GD4 whole entry, species assumed): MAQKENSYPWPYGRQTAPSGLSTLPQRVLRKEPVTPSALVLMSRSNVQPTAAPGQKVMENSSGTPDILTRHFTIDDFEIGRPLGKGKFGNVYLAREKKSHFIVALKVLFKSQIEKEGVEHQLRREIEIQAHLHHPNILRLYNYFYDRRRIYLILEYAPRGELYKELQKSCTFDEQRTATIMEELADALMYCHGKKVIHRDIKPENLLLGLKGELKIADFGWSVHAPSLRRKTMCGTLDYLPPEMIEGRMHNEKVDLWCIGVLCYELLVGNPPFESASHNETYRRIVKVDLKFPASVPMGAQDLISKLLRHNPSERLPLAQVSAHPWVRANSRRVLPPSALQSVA
T3 sequence (Q9NQS7 835-903 partner limits assumed, species assumed): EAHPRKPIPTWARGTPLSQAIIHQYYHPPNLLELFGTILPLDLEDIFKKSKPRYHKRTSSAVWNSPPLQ
Method: as §1, §2
Aurora1: Aurora-B/INCENP-C3 recombinant complex, purified to about 50%, the N-terminal end of Aurora-B of which has been labeled with histidine.
as §3, §4, §5, §6, §7

CDK2/cycline E = target: T4, CDK2/cycline E (Homo sapiens, UniProt P24941); test: CDK2/cyclineE Flashplate test in 96-well format; conditions: CDK2/cycline E complex, 1 μM ATP
T4 construct: made in house; host or cells: Sf21 insect cells (baculovirus coinfection)
Method: Two recombinant baculoviruses bearing the human sequences coding, respectively, for CDK2 and cyclineE (the latter bearing a C-terminal hexahistidine tag) are used to coinfect Sf21 insect cells. Two to three days after the start of coinfection, the cells are harvested by centrifugation and then stored at −40° C. until the time of use.
A format in streptavidin-coated 96-well plates is used to test the activity of the compounds on the kinase activity of CDK2/cycline E.
To perform this test, the biotinylated peptide substrate, a fragment of the protein pRb (biotinyl-[…]-OH), is dissolved at a concentration of 1 mM in kinase buffer (HEPES/NaOH 50 mM, NaCl 1 mM, MgCl2 5 mM, pH 7.5) in order to constitute a stock solution stored at −20° C. in the form of 110 μL aliquots. On the day of the experiment, an aliquot of this solution is thawed and diluted in kinase buffer containing 1 mM of dithiothreitol, added to the buffer extemporaneously, in order to obtain a concentration of 14.3 μM. 70 μL of this solution are added to each well of the Flashplate in order to obtain a final substrate concentration of 10 μM during the enzymatic reaction performed in a final volume of the reaction medium of 100 μL (cf. below).
Intermediate dilutions of inhibitors (products of the invention) at various concentrations are prepared in DMSO from stock solutions at 10 mM in separate tubes. Dilutions at 1000 μM, 333.3 μM, 111.1 μM, 37.03 μM, 12.35 μM, 4.11 μM and 1.37 μM are thus prepared. One μL of each of these solutions (or 1 μL of DMSO for the controls) is transferred into the wells of the test plate.
19 μl of a solution of a mixture of adenosine triphosphate (ATP) and of ATPγ^33P in kinase buffer at a total concentration of 5.26 μM of ATP and 52.6 μCi/ml of ^33P are then added to each well. The enzymatic reaction is initiated by adding 10 μL per well of a 200 nM solution of CDK2/cycline E in kinase buffer containing 1 mM of dithiothreitol (or 10 μL of kinase buffer containing 1 mM of dithiothreitol for the reaction blanks).
After addition of each of the reagents, the final volume of each well is 100 μL, the final concentration of substrate is 10 μM, the final inhibitor concentrations are 10 μM, 3.33 μM, 1.11 μM, 0.37 μM, 0.123 μM, 0.041 μM and 0.014 μM (according to the concentration of the intermediate dilution), the final ATP concentration is 1 μM, the final amount of ^33P is 1 μCi/well, and the final concentration of CDK2/cycline E complex is 20 nM.
After addition of all of the reagents, the test plate is incubated at 30° C. with orbital shaking at 650 rpm.
When the incubation is complete, the plate is washed three times with 300 μL per well of PBS (phosphate-buffered saline, pH=7.4, without calcium or magnesium, reference 10010-015, Gibco BRL). The incorporation of ^33P to the peptide is quantified by scintillation counting with a Packard Topcount.NXT machine.

Compound | IC50 (Aurora2) [nM] | IC50 (Tie2) [nM] | IC50 (Aurora1) [nM] | IC50 (CDK2/cycline E) [nM]
CN1CCCN(Cc2ccc(C(=O)Nc3n[nH]c4sc(C(=O)NN(C)c5ccccc5)cc34)cc2)CC1 [Example 12a, 4-(4-methylperhydro-1,4-diazepin-1-ylmethyl)-N-[5-(N′-methyl-N′-phenylhydrazinocarbonyl)-1H-thieno[2,3-c]-pyrazol-3-yl]benzamide] | 31 | 564 | 128 | 126
CN1CCN(c2ccc(C(=O)Nc3n[nH]c4sc(C(=O)NN(Cc5ccccc5)c5ccccc5)cc34)cc2)CC1 [Example 34, N-[5-(N′-benzyl-N′-phenylhydrazinocarbonyl)-1H-thieno[2,3-c]pyrazol-3-yl]-4-(4-methylpiperazin-1-yl)benzamide] | 5 | 38 | 13 | 1580
CN1CCN(c2ccc(C(=O)Nc3n[nH]c4sc(C(=O)N/N=C\c5ccccc5)cc34)cc2)CC1 [Example 45, N-[5-(benzylidenehydrazinocarbonyl)-1H-thieno-[2,3-c]pyrazol-3-yl]-4-(4-methylpiperazin-1-yl)benzamide] | 21 | 29 | 33 | 146
COc1ccc(C(=O)Nc2n[nH]c3sc(C(=O)NNc4ccccc4F)cc23)cc1 [Example 6, N-{5-[N′-(2-fluorophenyl)hydrazinocarbonyl]-1H-thieno[2,3-c]pyrazol-3-yl}-4-methoxybenzamide] | 20 | 230 | 14 | 579
CN1CCCN(Cc2ccc(C(=O)Nc3n[nH]c4sc(C(=O)NN(C)c5ccc(Cl)cc5)cc34)cc2)CC1 [Example 12b, 4-(4-methylperhydro-1,4-diazepin-1-ylmethyl)-N-[5-(N′-(4-chlorophenyl)-N′-methylhydrazinocarbonyl)-1H-thieno[2,3-c]pyrazol-3-yl]benzamide] | 68 | 218 | 151 | 40
CN1CCN(c2ccc(C(=O)Nc3n[nH]c4sc(C(=O)NN(C)Cc5ccccc5)cc34)cc2)CC1 [Example 30, N-[5-(N′-benzyl-N′-methylhydrazinocarbonyl)-1H-thieno[2,3-c]pyrazol-3-yl]-4-(4-methylpiperazin-1-yl)benzamide] | 6 | 128 | 12 | 221
COc1ccc(C(=O)Nc2n[nH]c3sc(C(=O)NN(Cc4ccccc4)c4ccccc4)cc23)cc1 [Example 4, N-[5-(N′-benzyl-N′-phenylhydrazinocarbonyl)-1H-thieno[2,3-c]pyrazol-3-yl]-4-methoxybenzamide] | 28 | 115 | 6 | 508

The remaining lines, values ahead:

IC50 (Aurora2) [nM] | IC50 (Tie2) [nM] | IC50 (Aurora1) [nM] | IC50 (CDK2/cycline E) [nM] | Compound
37 | 393 | 329 | 82 | CCN(CC)Cc1ccc(C(=O)Nc2n[nH]c3sc(C(=O)NN(C)c4ccc(Cl)cc4)cc23)cc1 [Example 15b, N-{5-[N′-(4-chlorophenyl)-N′-methylhydrazinocarbonyl]-1H-thieno[2,3-c]pyrazol-3-yl}-4-diethylaminomethylbenzamide]
12 | 623 | 114 | 210 | CCN(CC)Cc1ccc(C(=O)Nc2n[nH]c3sc(C(=O)NN(C)c4ccccc4)cc23)cc1 [Example 15a, 4-diethylaminomethyl-N-[5-(N′-methyl-N′-phenylhydrazinocarbonyl)-1H-thieno[2,3-c]pyrazol-3-yl]benzamide trifluoroacetate]
7 | 482 | 59 | 175 | CN(NC(=O)c1cc2c(NC(=O)c3ccc(CN4CCCCC4)cc3)n[nH]c2s1)c1ccccc1 [Example 17a, N-[5-(N′-methyl-N′-phenylhydrazinocarbonyl)-1H-thieno[2,3-c]pyrazol-3-yl]-4-piperidin-1-ylmethylbenzamide]
606 | 2010 | 936 | 301 | CN1CCN(Cc2cccc(C(=O)Nc3n[nH]c4sc(C(=O)NN(C)c5ccc(Cl)cc5)cc34)c2)CC1 [Example 16b, N-[5-(N′-(4-chlorophenyl)-N′-methylhydrazinocarbonyl)-1H-thieno[2,3-c]pyrazol-3-yl]-3-(4-methylpiperazin-1-ylmethyl)benzamide]
